Assay results reported in patent publication US20250197425A1, “2,6,9-TRISUBSTITUTED PURINES” (ASTRAZENECA AB, priority 2022, published 2025).

Experiments:
OVCAR3 cells [1] = experiment: Cell proliferation CyQUANT assay, OVCAR3; assay type: cell-based; settings: Homo sapiens, OVCAR-3, 168 h; CyQUANT cell counts, 7 days
Procedure: An imaging-based assay was used to investigate changes in cell number in OVCAR3 cells (CCNE1-amplified ovarian cancer cell line) and SKOV3 cells (non-amplified ovarian cancer cell line) treated with test compounds.
Cells were plated in 384 well plates (Perkin-Elmer 6057300) in RPMI-1640/10% FBS/1× L-Glu at 500 cells per well in 30 μL and incubated with test compound at 37° C. and 5% CO2 for 7 days. Cells were then stained using the CyQuant Direct Cell Proliferation Assay Kit (Thermo Cat #C7026) in accordance with the kit protocol. The stained cells were imaged using an Operetta high content imager to generate cell counts and IC50 values were calculated relative to DMSO controls.

CDK2:CCNE1 = CDK2:CCNE1 (Homo sapiens (Human), UniProt P24941); experiment: NanoBRET assay in MCF-7 cells, CDK2; assay type: cell-based; settings: transfected MCF-7 cells, 2 hours, n = 1 or average
How it was run: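 In live MCF-7 cells, compound added followed by NanoBRET TE Tracer K-9 (stock 200 μM) for CDK2, 2 h at 37° C, 5% CO2.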

OVCAR3 cells [2] = experiment: Cellular proliferation EdU assay, OVCAR3; assay type: cell-based, human; settings: Homo sapiens, OVCAR-3, 48 h, EdU assay, two days; read-out: OVCAR3 IC50
How it was run: (§1)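 MCF-7 (800 cells/well) and OVCAR3 (1200 cells/well) in RPMI with 10% FBS exposed to compounds for two days at 37 °C.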

CDK1:CCNB1 = CDK1:CCNB1 (Homo sapiens (Human), UniProt P06493); experiment: NanoBRET assay in MCF-7 cells, CDK1; assay type: cell-based; settings: NanoBRET, transfected MCF-7 cells, 2 hours; n = 1 or average; read-out: CDK1 IC50
Chain of CDK1:CCNB1 (P06493 whole entry): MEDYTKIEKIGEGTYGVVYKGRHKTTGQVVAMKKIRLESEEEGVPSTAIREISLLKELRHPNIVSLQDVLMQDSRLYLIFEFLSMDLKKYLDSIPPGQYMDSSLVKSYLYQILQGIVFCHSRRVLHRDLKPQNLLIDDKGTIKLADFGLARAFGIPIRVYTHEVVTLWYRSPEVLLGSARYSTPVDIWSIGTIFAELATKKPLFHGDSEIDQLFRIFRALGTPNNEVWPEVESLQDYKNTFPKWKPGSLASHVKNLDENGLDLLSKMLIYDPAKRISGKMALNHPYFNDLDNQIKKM
Chain of CDK1:CCNB1 (P14635 whole entry partner): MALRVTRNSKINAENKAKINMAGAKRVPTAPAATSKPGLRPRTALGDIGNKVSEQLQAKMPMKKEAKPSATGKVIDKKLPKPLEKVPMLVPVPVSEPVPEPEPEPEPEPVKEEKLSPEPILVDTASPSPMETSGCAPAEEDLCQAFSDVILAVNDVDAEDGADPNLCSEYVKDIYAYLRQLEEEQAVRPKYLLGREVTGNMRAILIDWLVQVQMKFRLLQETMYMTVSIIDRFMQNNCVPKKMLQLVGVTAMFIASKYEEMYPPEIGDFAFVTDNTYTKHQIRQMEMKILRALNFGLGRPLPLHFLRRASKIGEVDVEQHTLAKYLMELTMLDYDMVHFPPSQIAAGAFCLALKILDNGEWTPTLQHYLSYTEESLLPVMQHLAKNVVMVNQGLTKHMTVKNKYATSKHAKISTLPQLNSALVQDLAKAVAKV
How it was run: (§2)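 Transiently transfected MCF-7 cells expressing CDK1:CCNB1 or CDK4:CCND1 were treated with compound plus tracer (CDK1: Tracer K-9, 400 μM stock; CDK4: Tracer K-7, 100 μM stock) for 2 h at 37 °C.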

[3] = system: NPM phosphorylation (Thr199, CDK2-cyclin E complex); experiment: NPM phosphorylation imaging assay in MCF-7 cells; assay type: cell-based; settings: Homo sapiens, MCF7, 2 h, 4N DNA cells
How it was run: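 MCF-7 cells were fixed, permeabilised and immunostained, then imaged for phospho-NPM (Thr199), a CDK2-cyclin E site. Analysis was gated on 4N-DNA cells by Hoechst staining. Signals were normalised to controls and fitted for IC50.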

CDK4:CCND1 = CDK4:CCND1 (Homo sapiens (Human), UniProt P11802); experiment: NanoBRET assay in MCF-7 cells, CDK4; assay type: cell-based; settings: NanoBRET, transfected MCF-7 cells, 2 hours; n = 1 or average; read-out: CDK4 IC50
Chain of CDK4:CCND1 (P11802 whole entry): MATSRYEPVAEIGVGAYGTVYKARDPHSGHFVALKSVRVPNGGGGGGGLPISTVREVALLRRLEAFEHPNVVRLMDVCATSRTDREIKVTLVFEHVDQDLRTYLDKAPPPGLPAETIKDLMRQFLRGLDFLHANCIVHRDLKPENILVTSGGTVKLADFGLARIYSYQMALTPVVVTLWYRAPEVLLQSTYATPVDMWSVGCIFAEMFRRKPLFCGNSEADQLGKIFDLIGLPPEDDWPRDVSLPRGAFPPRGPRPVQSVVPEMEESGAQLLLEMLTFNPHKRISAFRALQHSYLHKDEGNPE
Chain of CDK4:CCND1 (P24385 whole entry partner): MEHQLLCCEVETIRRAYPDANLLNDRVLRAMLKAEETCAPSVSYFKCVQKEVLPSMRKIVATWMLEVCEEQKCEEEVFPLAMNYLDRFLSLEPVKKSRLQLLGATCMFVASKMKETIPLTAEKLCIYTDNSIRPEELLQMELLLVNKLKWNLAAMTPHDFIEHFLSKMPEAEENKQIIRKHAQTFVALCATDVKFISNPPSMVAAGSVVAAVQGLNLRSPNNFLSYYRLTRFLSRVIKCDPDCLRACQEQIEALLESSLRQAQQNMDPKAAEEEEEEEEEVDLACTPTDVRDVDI
How it was run: as §2

MCF-7 cells = experiment: Cellular proliferation EdU assay, MCF-7; assay type: cell-based; settings: Homo sapiens, MCF7, 48 h, EdU assay, two days; read-out: MCF-7 IC50
How it was run: as §1

## CCNS(=O)(=O)N1CC[C@H](Nc2nc(N[C@@H](CC)[C@@H](C)O)nc3c2ncn3C)C1 [Example 53, (S)—N-ethyl-3-((2-(((2R,3S)-2-hydroxypentan-3-yl)amino)-9-methyl-9H-purin-6-yl)amino)pyrrolidine-1-sulfonamide]
OVCAR3 cells [1]
  IC50: 373 nM
CDK2:CCNE1
  IC50: 43 nM
OVCAR3 cells [2]
  IC50: 616 nM
CDK1:CCNB1
  IC50: 1800 nM
[3]
  IC50: 241 nM
CDK4:CCND1
  IC50: > 29700 nM
MCF-7 cells
  IC50: 1430 nM

## CCn1cnc2c(N[C@H]3CCN(S(=O)(=O)NC)C3)nc(-c3cccc4c3CC[C@]4(C)O)nc21 (relative stereo) [Example 3, (S)-3-((9-ethyl-2-((R*)-1-hydroxy-1-methyl-2,3-dihydro-1H-inden-4-yl)-9H-purin-6-yl)amino)-N-methylpyrrolidine-1-sulfonamide]
CDK2:CCNE1
  IC50: 18 nM
OVCAR3 cells [2]
  IC50: 457 nM
CDK1:CCNB1
  IC50: 636 nM
[3]
  IC50: 233 nM
CDK4:CCND1
  IC50: 12800 nM
MCF-7 cells
  IC50: 969 nM

## CCNS(=O)(=O)N1CC[C@H](Nc2nc(N[C@@H](CO)C3CC3)nc3c2ncn3C)C1 [Example 19, (S)-3-((2-(((R)-1-cyclopropyl-2-hydroxyethyl)amino)-9-methyl-9H-purin-6-yl)amino)-N-ethylpyrrolidine-1-sulfonamide]
OVCAR3 cells [1]
  IC50: 201 nM
CDK2:CCNE1
  IC50: 27 nM
OVCAR3 cells [2]
  IC50: 276 nM
CDK1:CCNB1
  IC50: 342 nM
[3]
  IC50: 133 nM
CDK4:CCND1
  IC50: 5800 nM
MCF-7 cells
  IC50: 538 nM

## CCn1cnc2c(N[C@@H]3CN(S(=O)(=O)c4ncc[nH]4)C[C@H]3F)nc(N[C@@H](CO)C3CC3)nc21 (relative stereo) [Example 17, (R)-2-((6-(((3R*,4R*)-1-((1H-imidazol-2-yl)sulfonyl)-4-fluoropyrrolidin-3-yl)amino)-9-ethyl-9H-purin-2-yl)amino)-2-cyclopropylethan-1-ol]
OVCAR3 cells [1]
  IC50: 53 nM
CDK2:CCNE1
  IC50: 9 nM
OVCAR3 cells [2]
  IC50: 44 nM
CDK1:CCNB1
  IC50: 114 nM
[3]
  IC50: 11 nM
CDK4:CCND1
  IC50: 1200 nM
